Assay results as given in ChEMBL document CHEMBL4507319 (2021).

Columns and labels:
[1] = target: D(1A) dopamine receptor (Homo sapiens) (UniProt P21728); conditions: Compound concentration 10.0 uM
NCI-H460 = test: NCI- H460 cell line Proliferation assay; format: functional, Homo sapiens; conditions: time 3 day
VCaP = test: VCaP cell line Proliferation assay; format: functional, Homo sapiens; conditions: time 6 day
[2] = target: T1, Mitogen-activated protein kinase kinase kinase kinase 3 (Homo sapiens) (UniProt Q8IVH8); test: MAP4K3(h) Eurofins kinase panel; conditions: Compound concentration 1.0 uM
T1 sequence (whole entry): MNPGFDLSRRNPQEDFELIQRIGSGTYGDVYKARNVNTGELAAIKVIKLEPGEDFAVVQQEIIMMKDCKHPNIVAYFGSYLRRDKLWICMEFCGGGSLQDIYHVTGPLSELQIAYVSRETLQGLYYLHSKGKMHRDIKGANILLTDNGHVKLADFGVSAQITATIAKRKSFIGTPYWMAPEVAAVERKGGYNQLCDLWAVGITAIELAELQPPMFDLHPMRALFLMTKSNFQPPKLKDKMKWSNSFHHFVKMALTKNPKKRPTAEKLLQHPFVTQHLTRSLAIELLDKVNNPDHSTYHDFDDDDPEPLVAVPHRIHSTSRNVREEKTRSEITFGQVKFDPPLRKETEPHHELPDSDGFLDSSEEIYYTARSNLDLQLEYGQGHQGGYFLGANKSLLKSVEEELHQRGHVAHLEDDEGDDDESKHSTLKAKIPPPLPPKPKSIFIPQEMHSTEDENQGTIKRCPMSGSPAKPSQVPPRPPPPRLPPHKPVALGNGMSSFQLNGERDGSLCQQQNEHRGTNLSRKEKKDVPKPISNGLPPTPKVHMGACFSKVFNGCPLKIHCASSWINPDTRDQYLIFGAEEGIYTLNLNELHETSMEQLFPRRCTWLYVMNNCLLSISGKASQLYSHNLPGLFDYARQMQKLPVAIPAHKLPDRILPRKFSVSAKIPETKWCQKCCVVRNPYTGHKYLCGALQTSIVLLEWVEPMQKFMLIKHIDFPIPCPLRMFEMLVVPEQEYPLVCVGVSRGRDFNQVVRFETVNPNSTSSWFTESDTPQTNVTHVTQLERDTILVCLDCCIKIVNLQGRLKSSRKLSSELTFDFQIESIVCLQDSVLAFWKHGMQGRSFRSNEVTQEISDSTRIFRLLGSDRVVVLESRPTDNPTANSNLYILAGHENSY

[3] = target: Calcium/calmodulin-dependent protein kinase type II subunit gamma (Homo sapiens) (UniProt Q13555); test: CaMKIIgamma(h) Eurofins kinase panel; conditions: Compound concentration 1.0 uM
[4] = target: Aurora kinase B (Homo sapiens) (UniProt Q96GD4); test: Aurora-B(h) Eurofins kinase panel; conditions: Compound concentration 1.0 uM
[5] = target: T2, Serine/threonine-protein kinase Sgk1 (Homo sapiens) (UniProt O00141); test: SGK(h) Eurofins kinase panel; conditions: Compound concentration 1.0 uM
T2 sequence (whole entry): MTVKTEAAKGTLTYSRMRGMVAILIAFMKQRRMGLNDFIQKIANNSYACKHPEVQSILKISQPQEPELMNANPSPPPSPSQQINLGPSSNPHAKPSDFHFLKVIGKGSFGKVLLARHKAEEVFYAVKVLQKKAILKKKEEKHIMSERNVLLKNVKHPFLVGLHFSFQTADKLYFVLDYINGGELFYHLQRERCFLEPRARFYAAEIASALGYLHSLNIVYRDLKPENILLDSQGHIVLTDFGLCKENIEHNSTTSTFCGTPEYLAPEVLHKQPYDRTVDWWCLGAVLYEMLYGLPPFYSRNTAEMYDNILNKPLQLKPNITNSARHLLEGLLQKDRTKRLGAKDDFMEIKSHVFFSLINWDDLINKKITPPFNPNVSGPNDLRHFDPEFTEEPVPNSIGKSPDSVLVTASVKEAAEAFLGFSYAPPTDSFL

[6] = target: T3, Tyrosine-protein kinase JAK3 (Homo sapiens) (UniProt P52333); test: JAK3(h) Eurofins kinase panel; conditions: Compound concentration 1.0 uM
T3 sequence (whole entry): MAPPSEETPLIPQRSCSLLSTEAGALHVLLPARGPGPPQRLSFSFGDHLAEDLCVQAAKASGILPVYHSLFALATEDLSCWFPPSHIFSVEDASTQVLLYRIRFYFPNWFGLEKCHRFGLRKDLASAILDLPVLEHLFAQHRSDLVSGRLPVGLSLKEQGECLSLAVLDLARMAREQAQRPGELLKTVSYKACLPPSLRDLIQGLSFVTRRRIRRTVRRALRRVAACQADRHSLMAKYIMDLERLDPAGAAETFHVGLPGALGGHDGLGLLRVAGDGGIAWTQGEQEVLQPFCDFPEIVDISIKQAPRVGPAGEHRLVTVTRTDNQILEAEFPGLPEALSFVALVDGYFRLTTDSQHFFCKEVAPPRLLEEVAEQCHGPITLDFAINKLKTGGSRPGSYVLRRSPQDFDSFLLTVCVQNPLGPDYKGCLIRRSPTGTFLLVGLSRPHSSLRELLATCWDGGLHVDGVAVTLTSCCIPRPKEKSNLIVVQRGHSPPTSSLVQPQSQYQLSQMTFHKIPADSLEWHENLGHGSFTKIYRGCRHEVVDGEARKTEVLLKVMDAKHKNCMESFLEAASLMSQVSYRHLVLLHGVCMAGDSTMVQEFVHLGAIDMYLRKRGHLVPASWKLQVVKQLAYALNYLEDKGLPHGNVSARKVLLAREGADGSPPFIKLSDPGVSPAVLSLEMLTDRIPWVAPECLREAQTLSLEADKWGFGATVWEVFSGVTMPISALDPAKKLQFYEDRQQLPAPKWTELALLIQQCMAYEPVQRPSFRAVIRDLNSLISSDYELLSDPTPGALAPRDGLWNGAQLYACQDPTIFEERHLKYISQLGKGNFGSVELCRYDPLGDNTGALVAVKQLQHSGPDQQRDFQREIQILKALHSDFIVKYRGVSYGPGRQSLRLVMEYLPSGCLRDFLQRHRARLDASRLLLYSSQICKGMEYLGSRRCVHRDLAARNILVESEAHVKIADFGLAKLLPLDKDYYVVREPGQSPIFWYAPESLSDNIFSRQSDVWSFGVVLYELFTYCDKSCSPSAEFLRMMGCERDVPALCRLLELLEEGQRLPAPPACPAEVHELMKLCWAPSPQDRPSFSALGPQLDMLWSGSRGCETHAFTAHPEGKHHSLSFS

Sequence of Calcium/calmodulin-dependent protein kinase type II subunit gamma (Homo sapiens) (Q13555 whole entry): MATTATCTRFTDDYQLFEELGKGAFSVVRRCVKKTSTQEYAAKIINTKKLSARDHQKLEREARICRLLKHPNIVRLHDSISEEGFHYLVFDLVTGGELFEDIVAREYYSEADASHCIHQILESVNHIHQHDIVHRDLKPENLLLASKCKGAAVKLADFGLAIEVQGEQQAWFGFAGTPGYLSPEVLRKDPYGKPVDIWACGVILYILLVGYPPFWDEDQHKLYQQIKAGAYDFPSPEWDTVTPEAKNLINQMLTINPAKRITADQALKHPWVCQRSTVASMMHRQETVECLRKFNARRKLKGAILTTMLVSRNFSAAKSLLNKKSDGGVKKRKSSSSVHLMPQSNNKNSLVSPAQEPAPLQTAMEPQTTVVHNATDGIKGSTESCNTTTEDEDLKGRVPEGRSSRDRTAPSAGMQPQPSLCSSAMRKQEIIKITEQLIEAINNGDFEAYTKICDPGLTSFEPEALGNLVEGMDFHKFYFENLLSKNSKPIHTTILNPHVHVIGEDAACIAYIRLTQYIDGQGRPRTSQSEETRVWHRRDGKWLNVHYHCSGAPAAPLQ
Sequence of Aurora kinase B (Homo sapiens) (Q96GD4 whole entry): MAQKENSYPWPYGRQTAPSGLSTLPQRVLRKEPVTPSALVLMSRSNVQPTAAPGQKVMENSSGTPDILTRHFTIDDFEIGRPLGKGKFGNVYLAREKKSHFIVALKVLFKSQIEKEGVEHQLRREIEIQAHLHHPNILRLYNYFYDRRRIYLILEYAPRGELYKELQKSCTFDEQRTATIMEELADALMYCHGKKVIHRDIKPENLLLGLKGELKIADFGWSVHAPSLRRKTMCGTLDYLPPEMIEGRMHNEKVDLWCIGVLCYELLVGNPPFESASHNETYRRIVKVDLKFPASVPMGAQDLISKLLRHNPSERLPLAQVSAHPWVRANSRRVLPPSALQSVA
Sequence of D(1A) dopamine receptor (Homo sapiens) (P21728 whole entry): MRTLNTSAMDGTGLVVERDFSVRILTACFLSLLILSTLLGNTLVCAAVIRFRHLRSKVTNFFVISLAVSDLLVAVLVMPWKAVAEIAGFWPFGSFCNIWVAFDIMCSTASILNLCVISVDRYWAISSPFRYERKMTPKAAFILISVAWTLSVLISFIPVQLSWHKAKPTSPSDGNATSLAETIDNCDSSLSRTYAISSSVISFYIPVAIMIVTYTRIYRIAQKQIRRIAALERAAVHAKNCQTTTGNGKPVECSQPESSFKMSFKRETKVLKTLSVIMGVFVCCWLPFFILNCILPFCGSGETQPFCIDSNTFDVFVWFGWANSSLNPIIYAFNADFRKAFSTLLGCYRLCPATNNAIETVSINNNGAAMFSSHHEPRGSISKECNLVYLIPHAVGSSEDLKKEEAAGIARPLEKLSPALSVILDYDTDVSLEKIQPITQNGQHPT

For `CCc1ccccc1C(=O)Nc1n[nH]c2c(C)c(F)c(C3C(C#N)=C(C)N(C)C(C)=C3C#N)cc12` [BAY-3827], the inhibition [1] was 67.4%, the “Cell Proliferation IC50” value (NCI-H460) was greater than 33 µM and the “Cell Proliferation IC50” value (VCaP) was 1.71 µM. For the same compound, the % residual kinase activity [2] was 78%, the % residual kinase activity [3] was 79% and the % residual kinase activity [4] was 76%. For the same compound, the % residual kinase activity [5] was 79% and the % residual kinase activity [6] was 93%.
